According to PubChem BioAssay (NCI):
Where “and” joins values, the source holds several entries; their conditions need not be identical. Equal entries are not always repeated.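 Exposure lasted 48 hours, with cells grown in 96-well plates and compounds tested at five concentrations. GI50: concentration for 50% inhibition of growth. The concentration for full growth arrest is given as TGI.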

system: HCT-15 colon; test: NCI anticancer screen, dose series, 48 h

| SMILES | GI50 | TGI |
| --- | --- | --- |
| CC12CCC(O)CC1CCC1C2CCC2(C)C(C3=CC(=O)OC3)CCC12O (configuration not stated) | 2.39 µM | 5.75 µM |
| CN/N=C(/Cc1occc(=O)c1O)C(=O)Nc1ccccc1C | – | > 100 µM |
| Cc1coc2c1CC1(C)C(CCC(O)C1C)C2 (configuration not stated) | – | > 100 µM |
| COc1ccc2c(c1)/C(=C/c1c(C)nc3sc(C)nn13)C(=O)N2 | 0.879 µM | > 100 µM |
| Cc1cc(I)cc(CN(C)CCCCN2CCCCC2)c1O | 6.08 µM | 25.8 µM |
| O=C(Nc1ccc(Cl)c(Cl)c1)Nc1ccc(Cl)c(Cl)c1 | 2.9 µM and 3.01 µM | 11.9 µM and 11.2 µM |
| C#Cc1ccc(-n2c(/C=C/c3ccc(C(F)(F)F)cc3)nc3ncccc3c2=O)cc1 | 1.74 µM | 3.68 µM |
| COc1cc(/C=N/NC(=O)c2ccc(C(F)(F)F)nc2Nc2ccc(Cl)cc2C)ccc1O | 0.987 µM | 10.4 µM |
| COc1ccc(C(=O)Cn2c(C(=O)c3ccccc3)nc(-c3ccc(OC)cc3)c2-c2ccc(OC)cc2)cc1 | > 100 µM | > 100 µM |
| O=C1c2ccccc2C2C1N2C(=O)C(F)(F)F (configuration not stated) | – | > 100 µM |
| N#CCCN(CCC#N)c1ccc(/C=C2\N=C(c3cc([N+](=O)[O-])ccc3Cl)OC2=O)cc1 | – | > 100 µM |
| CSc1nc2c(c(=O)[nH]1)N=C1c3ccccc3C(=O)C1C(c1ccccc1)N2 (configuration not stated) | 2.8 µM | > 100 µM |
| CCOC(=O)[C@]1(OC(C)=O)C[C@H](OC(C)=O)[C@@H](C(F)COP(=O)(OCc2ccccc2)OCc2ccccc2)O1 (some centres not stated) | 33.1 µM and > 100 µM | > 100 µM |
| CC1=C(C(=O)Nc2ccc(Cl)c(Cl)c2)C(c2cccc(Oc3ccccc3)c2)NC(=S)N1 (configuration not stated) | 8.93 µM | 17.4 µM |
| c1ccc2cc(-c3cc(-c4cc(-c5ccc6ccccc6c5)on4)no3)ccc2c1 | – | > 100 µM |

system: NCI-H226 lung; test: NCI anticancer screen, dose series, 48 h

| SMILES | TGI | GI50 |
| --- | --- | --- |
| N#CC1C(C#N)C2(c3ccccc3)C(c3ccccc3)=NN(c3ccccc3)CC12 (configuration not stated) | > 100 µM | – |
| COc1cc(Cc2cnc(/N=C3\C(=O)N(CN4CCN(c5c(F)cc6c(=O)c(C(=O)O)cn(C7CC7)c6c5OC)CC4C)c4ccc(F)cc43)nc2N)cc(OC)c1OC (configuration not stated) | 43.3 µM | 13.8 µM |
| C=C(CN1CCN(c2ccc(Cl)cc2F)CC1)c1ccc(C(=O)Nc2ccccc2N)cc1 | > 100 µM | 3.29 µM |
| CC(C)=CC(=O)C1c2cccc(O)c2C(=O)c2c(O)cc(C)cc21 (configuration not stated) | 4.65 µM | – |
| O=C(Nc1ccccc1)NS(=O)(=O)c1ccc(-n2nc3c(c2-c2cccs2)Cc2ccccc2-3)cc1 | 59 µM | 19.2 µM |
| CCCCOC(=O)C1OC(O[C@H]2CCC3(C)C(CCC4(C)C3CC=C3C5CC(C)(C)CCC5(C(=O)O)CC[C@]34C)C2(C)C)C(OC2OC(CO)C(O)C(O)C2O)C(OC2OC(CO)C(O)C(O)C2O)C1O (some centres not stated) | 66.1 µM | 29.2 µM |
| O=C1C=C(Cl)C(=O)C(c2ccc(Cl)cc2)=C1 | 85.5 µM | – |
| Cc1ccc2c(=O)cc(-c3ccc(F)cc3)[nH]c2n1 | > 100 µM | – |
| CCOc1ccc(NC(=O)C(=O)CC(=O)c2c[n+](=O)c3cc(C)c(C)cc3n2[O-])cc1 | > 100 µM | – |
| CN1C(=O)C(C)(C)C2(SC(C)(C)C2(C)C)N(C)C1=S (configuration not stated) | > 100 µM | – |
| Cn1cc(C2=C(c3cn(C)c4ncccc34)C(=O)NC2=O)c2ccccc21 | 16.5 µM | 5.45 µM |
| O=C1C(Cl)=C(Nc2cccc(Cl)c2)C(=O)N1Cc1ccc(Cl)cc1Cl | 2.26 µM | – |
| O=C(/C=C/C12c3ccccc3C(c3ccccc31)C1C(=O)NC(=O)C12)c1ccncc1 (configuration not stated) | 6.98 µM | 2.44 µM |
| CC1(C)CCc2c(c3c(c4c(=O)c(O)c(-c5ccc(O)cc5)oc24)OC(C)(C)CC3)O1 | > 100 µM | 58.5 µM |
| CC12CCC(O)CC1CCC1C2CCC2(C)C(C3=CC(=O)OC3)CCC12O (configuration not stated) | 27.7 µM | – |
| CN/N=C(/Cc1occc(=O)c1O)C(=O)Nc1ccccc1C | > 100 µM | – |
| Cc1coc2c1CC1(C)C(CCC(O)C1C)C2 (configuration not stated) | > 100 µM | – |
| COc1ccc2c(c1)/C(=C/c1c(C)nc3sc(C)nn13)C(=O)N2 | > 100 µM | > 28.4 µM |
| Cc1cc(I)cc(CN(C)CCCCN2CCCCC2)c1O | > 100 µM | 25.7 µM |
| O=C(Nc1ccc(Cl)c(Cl)c1)Nc1ccc(Cl)c(Cl)c1 | 15.2 µM and 15.8 µM | 3.05 µM and 3.22 µM |
| C#Cc1ccc(-n2c(/C=C/c3ccc(C(F)(F)F)cc3)nc3ncccc3c2=O)cc1 | 4.09 µM | 1.99 µM |
